Test results reported in patent publication US12617756B2 (ABIVAX, priority 2019, dated 2026).

system: RSV A2; test: Screening for RSV inhibition using Viral ToxGlo assay (cytopathic effect inhibition in HEp-2 cells); format: cell-based, Respiratory Syncytial Virus (RSV); conditions: RSV A2 in HEp-2 cells, MOI 0.5, 72h p.i., cytopathic effect inhibition relative to virus control, Viral ToxGlo luminescence
Method: Protocol for Screening Antiviral Compounds for RSV Inhibition and Cytotoxicity Using Viral ToxGlo Assay
HEp-2 cells were maintained in Eagle's minimum essential medium (EMEM) with Earle's BSS adjusted to contain 2 mM L-glutamine, 10% fetal bovine serum, 100 U/ml penicillin and 100 µg/ml streptomycin. For the purposes of the screening assay they were grown to 90% confluency, trypsinized and recovered. The trypsin was neutralised with cell culture media and cells were centrifuged at 150×g for 5 minutes before discarding the supernatant and resuspending cell pellet in assay media (EMEM with Earle's BSS adjusted to contain 2 mM L-glutamine, 2% fetal bovine serum and 100 U/ml penicillin and 100 µg/ml streptomycin). The cells were seeded into white clear-bottomed cell culture plates at a density of 1.5×10^4 cells/well in 50 μl and 4×10^3 cells/well in 25 μl for 96 well plates and 384 well plates respectively. For the media/background control column assay media only was added. Cell plates were placed in a humid chamber and incubated overnight at 37° C./5% CO2. After overnight incubation cells were checked for confluency and healthy appearance.
Test articles were made up at 10× test concentration in a maximum DMSO concentration of 10% (final assay concentration maximal 1% DMSO) and added to the cell plates in volumes of […] for 96 well plates and 5 μl for 384 well plates. For cell control and virus control wells the test article solvent only was added. Virus or assay media for cytotoxicity test wells and media/cell control wells was added immediately after test articles at an MOI of […] for 96 and 384 well plates respectively. Virus suspension was prepared by thawing RSV A2 frozen stocks and diluting to the required concentration of plaque forming units in assay media on ice.
Cell plates were further incubated inside a humid chamber for 72h p.i at 37° C./5% CO2. After the incubation period cells were observed under the microscope to check for characteristic cytopathic effect in virus control wells and healthy cells in the cell control wells. After plates were adjusted to room temperature 20/40 μl Viral ToxGlo (Promega) was added to each well of the 384/96 well cell plates. Plates were incubated at room temperature, protected from light on a plate rocker for 20 minutes before measuring the luminescence on a spectrophotometer (Biotek Synergy HTX).

Question: Which EC50 does the source give for O=C(N=C1NCCN1)c1cc(F)c(Nc2cccc(C3=NCCN3)c2)c(C2CC2)c1 [Compound 169, 3-cyclopropyl-4-{[3-(4,5-dihydro-1H-imidazol-2-yl)phenyl]amino}-5-fluoro-N-(imidazolidin-2-ylidene)benzamide] here?
Answer: 0.0136 µM

same assay, conditions: human respiratory syncytial virus; RSV A2 in HEp-2 cells, MOI 0.5, 72h p.i., cytopathic effect inhibition relative to virus control, Viral ToxGlo luminescence

Question: O=C(N=C1NCCN1)c1ccc(Nc2cccc(C(=O)NC3CCOCC3)c2)c(C2CCCC2)c1 [Compound 96, 3-cyclopentyl-N-[(2Z)-imidazolidin-2-ylidene]-4-({3-[(oxan-4-yl)carbamoyl]phenyl}amino)benzamide] was tested. Which EC50 did it give?
Answer: 0.839 µM

Question: For CC(C)C(=O)Nc1cccc(Nc2ccc(C(=O)N=C3NCCN3)cc2C(C)(C)C)c1 [Compound 37, 3-tert-butyl-N-[(2E)-imidazolidin-2-ylidene]-4-{[3-(2-methylpropanamido)phenyl]amino}benzamide], which EC50 is on record?
Answer: 0.0555 µM

Question: With CC1(NC(=O)c2ccnc(Nc3c(F)cc(C(=O)N=C4NCCN4)cc3C3CC3)c2Cl)CC1 [Compound 136, 3-chloro-2-[(2-cyclopropyl-6-fluoro-4-{[imidazolidin-2-ylidene]carbamoyl}phenyl)amino]-N-(1-methylcyclopropyl)pyridine-4-carboxamide] as the compound, how does the EC50 read?
Answer: 0.032 µM

Question: With CC(C)(O)c1cc(C(=O)N=C2NCCN2)ccc1Nc1cccc(C(=O)N2CCOCC2)c1Cl [Compound 45, 4-{[2-chloro-3-(morpholine-4-carbonyl)phenyl]amino}-3-(2-hydroxypropan-2-yl)-N-(imidazolidin-2-ylidene)benzamide] as the compound, how does the EC50 read?
Answer: 0.0915 µM

Question: With CC(C)NC(=O)c1cccc(Nc2ccc(C(=O)N=C3N(C)CCN3C)cc2C(C)(C)C)c1 [Compound 71, 3-tert-butyl-N-[(2Z)-1,3-dimethylimidazolidin-2-ylidene]-4-({3-[(propan-2-yl)carbamoyl]phenyl}amino)benzamide] as the compound, how does the EC50 read?
Answer: 1.17 µM

Question: For CC(C)(C)c1cc(C(=O)N=C2NCCN2)ccc1Nc1cccc(C(=O)NCCC2CCCOC2)c1 (stereo not shown) [Compound 33, 3-tert-butyl-N-[(2E)-imidazolidin-2-ylidene]-4-[(3-{[2-(oxan-3-yl)ethyl]carbamoyl}phenyl)amino]benzamide], which EC50 is on record?
Answer: 0.0502 µM

Question: With O=C(N=C1NCCN1)c1ccc(Nc2cccc(OCC3COCCO3)c2Cl)c(C2CC2)c1 (stereo not shown) [Compound 23, 4-({2-chloro-3-[(1,4-dioxan-2-yl)methoxy]phenyl}amino)-3-cyclopropyl-N-[(2E)-imidazolidin-2-ylidene]benzamide] as the compound, how does the EC50 read?
Answer: 0.0303 µM

Question: Which EC50 does the source give for O=C(N=C1NCCN1)c1ccc(Nc2cccc(C(=O)N3CCOC(C(F)(F)F)C3)c2Cl)c(C2CC2)c1 (stereo not shown) [Compound 121, 4-({2-chloro-3-[2-(trifluoromethyl)morpholine-4-carbonyl]phenyl}amino)-3-cyclopropyl-N—[imidazolidin-2-ylidene]benzamide] here?
Answer: 0.0051 µM

Question: For CC(C)N(C)C(=O)c1cccc(Nc2ccc(C(=O)N=C3NCCN3)cc2C(C)(C)C)c1 [Compound 38, 3-tert-butyl-N-[(2E)-imidazolidin-2-ylidene]-4-({3-[methyl(propan-2-yl)carbamoyl]phenyl}amino)benzamide], which EC50 is on record?
Answer: 0.0637 µM

Question: For CC1(C(=O)Nc2cccc(Nc3ccc(C(=O)N=C4NCCN4)cc3C3CC3)c2)CC1 [Compound 21, 3-cyclopropyl-N-[(2Z)-imidazolidin-2-ylidene]-4-{[3-(1-methylcyclopropaneamido)phenyl]amino}benzamide], which EC50 is on record?
Answer: 0.0258 µM

Question: How did the EC50 turn out when O=C(N=C1NCCN1)c1cc(F)c(Nc2nccc(C(=O)NC34CC(C3)C4)c2Cl)c(C2CC2)c1 [Compound 164] was run?
Answer: 0.0038 µM

Question: CC1(NC(=O)c2cccc(Nc3ncc(C(=O)N=C4NCCN4)cc3C3CC3)c2Cl)CC1 [Compound 146, 6-({2-chloro-3-[(1-methylcyclopropyl)carbamoyl]phenyl}amino)-5-cyclopropyl-N-[imidazolidin-2-ylidene]pyridine-3-carboxamide] was tested. Which EC50 did it give?
Answer: 0.253 µM

Question: O=C(N=C1NCCN1)c1ccc(Nc2cccc(C(=O)NC3CC3)c2C(F)(F)F)c(C2CC2)c1 [Compound 116, 3-cyclopropyl-4-f{[3-(cyclopropylcarbamoyl)-2-(trifluoromethyl)phenyl]amino}-N—[imidazolidin-2-ylidene]benzamide] was tested. Which EC50 did it give?
Answer: 0.131 µM

Question: CC(C)NC(=O)c1cccc(Nc2ccc(C(=O)N=C3NCCN3)cc2C2CC2)c1F [Compound 98, 3-cyclopropyl-4-({2-fluoro-3-[(propan-2-yl)carbamoyl]phenyl}amino)-N-[(2Z)-imidazolidin-2-ylidene]benzamide] was tested. Which EC50 did it give?
Answer: 0.228 µM

Question: For C=C(C)c1cc(C(=O)N=C2NCCN2)ccc1Nc1cccc(C(=O)NCCC(C)C)c1 [Compound 29, N-[(2E)-imidazolidin-2-ylidene]-4-({3-[(3-methylbutyl)carbamoyl]phenyl}amino)-3-(prop-1-en-2-yl)benzamide], which EC50 is on record?
Answer: 0.0423 µM

Question: CC(C)(C)c1cc(C(=O)N=C2NCCN2)ccc1Nc1cccc(C(=O)NCCC2CCOC2)c1 (stereo not shown) [Compound 48, 3-tert-butyl-N-[(2E)-imidazolidin-2-ylidene]-4-[(3-{[2-(oxolan-3-yl)ethyl]carbamoyl}phenyl)amino]benzamide] was tested. Which EC50 did it give?
Answer: 0.117 µM

Question: For CC(C)NC(=O)c1cccc(Nc2ccc(C(=O)/N=C3\NCCN3C)cc2C2CC2)c1 [Compound 36, 3-cyclopropyl-N-[(2E)-1-methylimidazolidin-2-ylidene]-4-({3-[(propan-2-yl)carbamoyl]phenyl}amino)benzamide], which EC50 is on record?
Answer: 0.0554 µM

Question: How did the EC50 turn out when O=C(N=C1NCCN1)c1ccc(Nc2cccc(C(=O)NC3(C(F)(F)F)CC3)c2)c(C2CC2)c1 [Compound 53, 3-cyclopropyl-N-[(2Z)-imidazolidin-2-ylidene]-4-[(3-{[1-(trifluoromethyl)cyclopropyl]carbamoyl}phenyl)amino]benzamide] was run?
Answer: 0.153 µM

Question: How did the EC50 turn out when CC(C)NC(=O)c1cccc(Nc2ccc(C(=O)/N=C3\NCC(=O)N3)cc2C(C)(C)C)c1 [Compound 49, 3-tert-butyl-N-[(2E)-4-oxoimidazolidin-2-ylidene]-4-({3-[(propan-2-yl)carbamoyl]phenyl}amino)benzamide] was run?
Answer: 0.118 µM

Question: For N#CC1(NC(=O)c2ccnc(Nc3c(F)cc(C(=O)N=C4NCCN4)cc3C3CC3)c2F)CC1 [Compound 152, N-(1-cyanocyclopropyl)-2-[(2-cyclopropyl-6-fluoro-4-{[imidazolidin-2-ylidene]carbamoyl}phenyl)amino]-3-fluoropyridine-4-carboxamide], which EC50 is on record?
Answer: 1.14 µM

Question: CC(C)NC(=O)c1cc(F)cc(Nc2ccc(C(=O)N=C3NCCN3)cc2C2CC2)c1F [Compound 138, 3-[(2-cyclopropyl-4-{[imidazolidin-2-ylidene]carbamoyl}phenyl)amino]-2,5-difluoro-N-(propan-2-yl)benzamide] was tested. Which EC50 did it give?
Answer: 0.233 µM

Question: O=C(N=C1NCCN1)c1cc(F)c(Nc2cccc(C(=O)N3CCOCC3)c2F)c(C2CC2)c1 [Compound 158, 3-cyclopropyl-5-fluoro-4-{[2-fluoro-3-(morpholine-4-carbonyl)phenyl]amino}-N—[imidazolidin-2-ylidene]benzamide] was tested. Which EC50 did it give?
Answer: 0.0068 µM

Question: For Cc1cc(C(=O)N=C2NCCN2)cc(C2CC2)c1Nc1cccc(C(=O)NC(C)C)c1 [Compound 106, 3-cyclopropyl-N-[(2Z)-imidazolidin-2-ylidene]-5-methyl-4-({3-[(propan-2-yl)carbamoyl]phenyl}amino)benzamide], which EC50 is on record?
Answer: 0.0057 µM

Question: With CC(C)(C)c1cc(C(=O)N=C2NCCN2)ccc1Nc1cccc(OCC2COCCO2)c1 (stereo not shown) [Compound 52, 3-tert-butyl-4-({3-[(1,4-dioxan-2-yl)methoxy]phenyl}amino)-N-[(2E)-imidazolidin-2-ylidene]benzamide] as the compound, how does the EC50 read?
Answer: 0.142 µM
